The test system of data set [1] is HeLa cells. Put plainly: Cell staining test (confocal laser microscope). The note with it: FIG. 8. Type of data set: cell-based. As to the method:
HeLa cells were seeded onto μ-slide 8 well plates (ibidi) and cultured overnight in an incubator (37° C., 5% CO2, MEM medium (containing 10% fetal bovine serum and 1% penicillin/streptomycin)).

Data set [2] can be described thus: Effect of pH on fluorescence intensity. The data set is classed as physicochemical. The note with it: 1 μmol/L in 1:1 mixture of buffer (pH 7.4, 6.5, 4) and DMSO; FIG. 7. Here is the method: Compound (3) was added to a 1:1 mixture of PBS (pH 7.4), Tris-HCl buffer (pH 6.5), phthalate buffer (pH 4) and DMSO to a final concentration of 1 μmol/L and the fluorescence spectrum was measured.

In data set [3] the test system is HeLa cells. Put plainly: Endosome staining test (confocal laser microscope). Type of data set: cell-based. The note with it: endosomes enlarged by wortmannin 100 nM, 30 minutes at 37° C., FIG. 9. Here is the method: HeLa cells were seeded on μ-slide 8 well plates (ibidi) and cultured overnight in an incubator (37° C., 5% CO2 presence, MEM medium (containing 10% fetal bovine serum and 1% penicillin/streptomycin)). The medium was removed and wortmannin (100 nM: a PI-3 kinase inhibitor that hypertrophies early endosomes) diluted in MEM medium Various fluorescent compounds (Compound (3), pHrodo Dex (Thermofisher), FM1-43 (Molecular Probe)) diluted with MEM medium were added and incubated for 30 minutes at 37° C. The supernatant was removed, and the cells were incubated at 37° C. for 30 minutes. The supernatant was removed, replaced with MEM medium and observed with a confocal laser microscope. In addition, instead of adding fluorescent compounds, the same experiment was performed using HeLa cells expressing Rab5-RFP (cDNA encoding a fusion protein in which a fluorescent protein is fused to an endosomal membrane-specific protein) before addition of wortmannin. The same experiments were also performed on the control group (CTRL) without adding wortmannin.

Take `CCCCCN1C(=O)c2ccc3c4cccc5c(N6CCN(CCCS(=O)(=O)O)CC6)ccc(c6ccc(c2c36)C1=O)c54` [Compound (2)]: in the data set on HeLa cells [1], the “localisation of fluorescent compound after leaving overnight (retention in cell membrane)” value was “remained in the cell membrane”.

As for `CCCCCN1C(=O)c2cccc3c(N4CCN(CCCS(=O)(=O)O)CC4)ccc(c23)C1=O` [Compound (3)], the “change of fluorescence intensity with pH” value in data set [2] was “marked increase in fluorescence intensity was observed with decreasing pH”. Moreover, the “staining of endosomes (membrane versus contents)” value in the data set on HeLa cells [3] is reported as “only the endosomal membrane was specifically stained”.

On to `O=C1c2ccc3c4cccc5cccc(c6ccc(c2c36)C(=O)N1CCCS(=O)(=O)O)c54` [Compound (1)], for which the “localisation of fluorescent compound after leaving overnight (retention in cell membrane)” value in the data set on HeLa cells [1] is “remained in the cell membrane”.
